How the values were obtained:
Assay in all cases: REVEAL binding assay
Conditions in all cases: score as percentage of the signal generated by the positive control peptide
HLA-A1 = test system: HLA-A1
HLA-A24 = test system: HLA-A24
HLA-A29 = test system: HLA-A29
HLA-B8 = test system: HLA-B8
From the text: (§2) HLA-A1, HLA-A2, HLA-A3, HLA-A11, HLA-A24, HLA-A29, HLA-B7, HLA-B8, HLA-B14, HLA-B15, HLA-B27, HLA-B35, HLA-B40.
(§3) The REVEAL™ binding assay determined the ability of each candidate peptide to bind to one or more MHC class I alleles and stabilizing the MHC-peptide complex. […] Detection is based on the presence or absence of the native conformation of the MHC-peptide complex. Each peptide is given a score relative to the positive control peptide, which is a known T cell epitope.

HLA-B14 = test system: HLA-B14
From the text: as §2, §3

HLA-B15 = test system: HLA-B15
HLA-A11 = HLA-A11 (Homo sapiens, UniProt P04439, A114D/F33Y/S129P)
Method in brief: (§1)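 Synthetic nonamer peptides were tested for their ability to bind and stabilize MHC class I–peptide complexes, detected by the native conformation of the complex. Each peptide is scored relative to a positive-control known T-cell epitope.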

HLA-A2 = HLA-A2 (Homo sapiens, UniProt P04439, D140Y/D185E/D98H/E176V/E277Q/G131W/G231S/I119V/I121R/I166T/I218V/N151K/N90K/P208A/P217A/Q86G/Q94H/R138H/R169H)
Method in brief: as §1

HLA-A3 = HLA-A3 (Homo sapiens, UniProt P04439)
Method in brief: as §1

HLA-B27 = HLA-B27 (Homo sapiens, UniProt P01889, D138H/D201E/E176V/E204Q/G107R/H137Y/K202T/N104T/N87E/Q56L/Q94K/R106L/R155S/R180L/S101D/S121N/S48T/Y140D/Y33H/Y91C)
Method in brief: as §1

HLA-B7 = HLA-B7 (Homo sapiens, UniProt P01889)
Method in brief: as §1

HLA-B35 = test system: HLA-B35
HLA-B40 = test system: HLA-B40
Method in brief: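 Score = % of signal from a positive-control T cell epitope, reflecting how well each ninemer stabilizes the native MHC class I–peptide complex. An intermediate control of lower affinity verified each run.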

HLA-A3, sequence (P04439 25-299): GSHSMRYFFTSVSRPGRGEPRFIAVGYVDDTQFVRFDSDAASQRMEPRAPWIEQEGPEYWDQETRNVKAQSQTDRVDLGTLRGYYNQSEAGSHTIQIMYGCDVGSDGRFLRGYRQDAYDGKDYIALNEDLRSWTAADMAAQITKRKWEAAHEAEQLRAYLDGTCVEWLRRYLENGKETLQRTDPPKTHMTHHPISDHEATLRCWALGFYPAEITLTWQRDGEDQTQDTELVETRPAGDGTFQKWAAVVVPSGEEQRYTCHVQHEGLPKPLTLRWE
HLA-A3, sequence (P61769 21-119, further chain): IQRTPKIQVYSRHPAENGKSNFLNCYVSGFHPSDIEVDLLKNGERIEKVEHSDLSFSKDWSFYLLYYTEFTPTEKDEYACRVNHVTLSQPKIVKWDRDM
HLA-B7, sequence (P61769 21-119): as the sequence (P61769 21-119, further chain) above
HLA-B7, sequence (P01889 25-299): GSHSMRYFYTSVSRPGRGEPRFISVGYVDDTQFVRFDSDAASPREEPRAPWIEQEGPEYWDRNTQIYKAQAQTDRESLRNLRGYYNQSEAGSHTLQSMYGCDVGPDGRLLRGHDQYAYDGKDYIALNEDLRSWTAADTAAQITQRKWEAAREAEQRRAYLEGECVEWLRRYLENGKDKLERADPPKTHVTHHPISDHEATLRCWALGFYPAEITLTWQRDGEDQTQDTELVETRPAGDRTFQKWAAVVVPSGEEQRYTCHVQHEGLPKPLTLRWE

Sequence	REVEAL binding score, HLA-type A1 (HLA-A1)	REVEAL binding score, HLA-type A24 (HLA-A24)	REVEAL binding score, HLA-type A29 (HLA-A29)	REVEAL binding score, HLA-type B8 (HLA-B8)	REVEAL binding score, HLA-type B14 (HLA-B14)	REVEAL binding score, HLA-type B15 (HLA-B15)	REVEAL binding score, HLA-type A11 (HLA-A11)	REVEAL binding score, HLA-type A2 (HLA-A2)	REVEAL binding score, HLA-type A3 (HLA-A3)	REVEAL binding score, HLA-type B27 (HLA-B27)	REVEAL binding score, HLA-type B7 (HLA-B7)	REVEAL binding score, HLA-type B35 (HLA-B35)	REVEAL binding score, HLA-type B40 (HLA-B40)
TFSIYLIVS	9.93%	0.60%	8.58%	9.52%	0.37%	8.63%	2.89%	2.02%	0.91%	1.49%	1.28%	2.48%	23.23%
TGNIPGSTY	10.58%	0.86%	35.10%	10.25%	1.15%	52.30%	6.06%	3.59%	13.04%	1.98%	1.32%	48.40%	38.15%
TGNLPGCSF	11.97%	4.81%	18.89%	8.62%	0.86%	45.07%	2.56%	5.18%	3.71%	2.37%	2.38%	11.40%	73.71%
VARALAHGV	16.10%	0.32%	29.43%	14.31%	0.17%	11.26%	3.47%	5.85%	2.77%	0.62%	31.59%	0.27%	44.29%
VGGVYLLPR	17.88%	0.34%	14.20%	11.57%	0.44%	13.22%	4.16%	8.73%	3.41%	0.79%	1.15%	4.02%	55.61%
VIDTLTCGF	25.85%	0.95%	13.90%	10.00%	0.11%	9.49%	6.00%	5.14%	2.93%	1.11%	0.45%	3.26%	27.24%
VIETLTSGF	14.61%	0.82%	13.07%	12.96%	0.35%	10.37%	3.66%	4.84%	2.55%	1.38%	0.71%	2.39%	24.04%
VIRVIAHGL	18.66%	0.28%	27.12%	32.81%	0.55%	9.64%	4.54%	8.60%	4.29%	1.16%	29.93%	2.51%	52.64%
VTGNIPGST	16.18%	1.60%	15.05%	13.12%	0.75%	5.15%	4.85%	8.44%	2.52%	1.58%	2.24%	4.00%	130.97%
YATGNLPGC	8.10%	1.20%	18.82%	9.51%	0.41%	5.09%	2.16%	22.46%	3.67%	2.44%	0.76%	4.52%	77.49%
YIPLVGAPL	21.80%	4.51%	31.09%	33.10%	0.13%	54.57%	3.54%	35.00%	5.29%	0.69%	41.87%	99.81%	30.22%
YLPAVGAPI	15.76%	4.65%	28.40%	17.92%	0.12%	49.63%	3.07%	75.80%	2.58%	0.51%	7.70%	2.03%	64.34%

Reference: US9550811B2, “Peptide scaffold design” (BIONOR IMMUNO AS, priority 2010, dated 2017)
